Data reported in US20220340875A1, “METHODS OF CULTURING AND/OR EXPANDING STEM CELLS AND/OR LINEAGE COMMITTED PROGENITOR CELLS USING AMIDO COMPOUNDS” (IDEAYA BIOSCIENCES, INC., priority 2018, published 2022).

biological target: T1, hAhR (Homo sapiens, UniProt P35869); assay: AhR DRE-luciferase reporter transcriptional assay, antagonist mode (TCDD-induced); type: cell-based; conditions: HEPG2 DRE-Luc cells, 3 nM TCDD, 24 hour incubation, relative IC50
T1 construct: Stably integrated DRE-luciferase cell lines were generated by transducing the both cell lines with Cignal XRE luciferase reporter (Qiagen) lentiviral particles; endogenous in cells
T1 sequence (P35869 11-848): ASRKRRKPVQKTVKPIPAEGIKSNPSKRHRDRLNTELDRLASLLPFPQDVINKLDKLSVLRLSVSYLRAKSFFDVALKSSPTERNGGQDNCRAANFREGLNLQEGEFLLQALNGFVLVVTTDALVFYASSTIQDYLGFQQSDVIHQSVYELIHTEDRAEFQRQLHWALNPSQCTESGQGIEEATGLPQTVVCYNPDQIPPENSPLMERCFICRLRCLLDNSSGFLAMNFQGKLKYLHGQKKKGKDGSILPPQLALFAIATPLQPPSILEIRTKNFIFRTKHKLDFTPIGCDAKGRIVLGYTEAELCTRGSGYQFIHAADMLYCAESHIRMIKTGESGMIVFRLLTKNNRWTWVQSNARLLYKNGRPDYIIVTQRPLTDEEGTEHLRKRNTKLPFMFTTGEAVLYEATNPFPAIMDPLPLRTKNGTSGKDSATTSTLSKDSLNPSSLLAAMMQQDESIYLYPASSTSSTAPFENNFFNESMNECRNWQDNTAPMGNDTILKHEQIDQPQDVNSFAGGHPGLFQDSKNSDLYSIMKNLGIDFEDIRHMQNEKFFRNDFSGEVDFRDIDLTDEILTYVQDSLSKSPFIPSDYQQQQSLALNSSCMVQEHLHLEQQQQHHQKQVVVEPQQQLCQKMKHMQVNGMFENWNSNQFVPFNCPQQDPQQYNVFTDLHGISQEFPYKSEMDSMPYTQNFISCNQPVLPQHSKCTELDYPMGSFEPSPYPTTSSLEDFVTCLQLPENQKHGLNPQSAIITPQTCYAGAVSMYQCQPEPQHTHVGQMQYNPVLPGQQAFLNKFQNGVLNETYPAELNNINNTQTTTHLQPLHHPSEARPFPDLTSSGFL
Method in brief: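 HepG2 cells carrying a stably integrated DRE-luciferase reporter, in OptiMEM with 0.5% FBS; semi-log compound doses added with 3 nM TCDD, 24 h incubation, firefly luciferase read-out. Percent maximal activity normalised between vehicle ± TCDD; relative IC50 taken as half-reduction between curve plateaus.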

Row | Compound | IC50 [nM]
1 | Cc1cc(-c2ccc3cc(C(F)(F)F)ccc3n2)ccc1NC(=O)C(F)(F)F [Example 080, 2,2,2-trifluoro-N-(2-methyl-4-(6-(trifluoromethyl)quinolin-2-yl)phenyl)acetamide] | 1000 to 10000
2 | Cc1cc(-c2ncc3nc(C(F)(F)F)ccc3n2)ccc1NC(=O)c1ccnn1CC(C)O (centres unmarked) [Example 193, 1-(2-hydroxypropyl)-N-(2-methyl-4-(6-(trifluoromethyl)pyrido[3,2-d]pyrimidin-2-yl)phenyl)-1H-pyrazole-5-carboxamide] | 500 to 1000
3 | Cc1cc(-c2ccc3cc(C(F)(F)F)ccc3n2)ccc1N(C)C(=O)C(F)(F)F [Example 081, 2,2,2-Trifluoro-N-methyl-N-(2-methyl-4-(6-(trifluoromethyl)quinolin-2-yl)phenyl)acetamide] | 1000 to 10000
4 | Cc1cc(-c2ccc3ncn(C)c3c2)ccc1NC(=O)c1ccnn1C [Example 089, 1-Methyl-N-(2-methyl-4-(1-methyl-1H-benzo[d]imidazol-6-yl)phenyl)-1H-pyrazole-5-carboxamide] | 1000 to 10000
5 | Cc1cc(-c2ncc3nc(C(F)(F)F)ccc3n2)c(C)cc1NC(=O)c1ccnn1C [Example 189, N-(2,5-dimethyl-4-(6-(trifluoromethyl)pyrido[3,2-d]pyrimidin-2-yl)phenyl)-1-methyl-1H-pyrazole-5-carboxamide] | 1000 to 10000
6 | Cc1cc(-c2ccc3cc(F)ccc3n2)ccc1NC(=O)c1cncn1C [Example 034, N-(4-(6-fluoroquinolin-2-yl)-2-methylphenyl)-1-methyl-1H-imidazole-5-carboxamide] | 500 to 1000
7 | Cc1cc(-c2ccc3c(C(F)(F)F)cn(C)c3c2)ccc1NC(=O)c1ccnn1C [Example 086, 1-methyl-N-(2-methyl-4-(1-methyl-3-(trifluoromethyl)-1H-indol-6-yl)phenyl)-1H-pyrazole-5-carboxamide] | 1000 to 10000
8 | Cc1cc(-c2ccc3c(ccn3C)c2)ccc1NC(=O)c1ccnn1C [Example 083, 1-methyl-N-(2-methyl-4-(1-methyl-1H-indol-5-yl)phenyl)-1H-pyrazole-5-carboxamide] | 500 to 1000
9 | Cc1cc(-c2ccc3cc(F)ccc3n2)ccc1NC(=O)c1ccccc1 [Example 023, N-(4-(6-fluoroquinolin-2-yl)-2-methylphenyl)benzamide] | 500 to 1000
10 | Cc1cc(-c2ccc3cnn(C)c3c2)ccc1NC(=O)c1ccnn1C [Example 090, 1-Methyl-N-(2-methyl-4-(1-methyl-1H-indazol-6-yl)phenyl)-1H-pyrazole-5-carboxamide] | 1000 to 10000
11 | Cc1cc(-c2ncc3cc(C(F)(F)F)ccc3n2)ccc1N(C)C(=O)c1nnn[nH]1 [Example 133, N-methyl-N-(2-methyl-4-(6-(trifluoromethyl)quinazolin-2-yl)phenyl)-1H-tetrazole-5-carboxamide] | 1000 to 10000
12 | Cc1cc(-c2ccc3cc(F)cc(C#N)c3n2)ccc1NC(=O)c1ccnn1C [Example 054, N-(4-(8-cyano-6-fluoroquinolin-2-yl)-2-methylphenyl)-1-methyl-1H-pyrazole-5-carboxamide] | 200 to 500
13 | Cc1cc(-c2ccc3cc(F)ccc3n2)ccc1NC(=O)c1ccncc1 [Example 028, N-(4-(6-fluoroquinolin-2-yl)-2-methylphenyl)isonicotinamide] | 500 to 1000
14 | Cc1cc(-c2ccc3cc(F)ccc3n2)ccc1NC(=O)N1CCOCC1 [Example 041, N-(4-(6-fluoroquinolin-2-yl)-2-methylphenyl)morpholine-4-carboxamide] | 1000 to 10000
15 | Cc1cc(-c2ccc3cncc(C)c3c2)ccc1NC(=O)c1ccnn1C [Example 061, 1-methyl-N-(2-methyl-4-(4-methylisoquinolin-6-yl)phenyl)-1H-pyrazole-5-carboxamide] | 500 to 1000

Continued, values first:

Row | IC50 [nM] | Compound
16 | 200 to 500 | Cn1nccc1C(=O)Nc1ccc(-c2ccc3cc(C(F)(F)F)ccc3n2)cc1F [Example 077, N-(2-fluoro-4-(6-(trifluoromethyl)quinolin-2-yl)phenyl)-1-methyl-1H-pyrazole-5-carboxamide]
17 | < 200 | Cc1cc(-c2ncc3cc(C(F)(F)F)ccc3n2)ccc1N(C)C(=O)c1ncc[nH]1 [Example 132, N-methyl-N-(2-methyl-4-(6-(trifluoromethyl)quinazolin-2-yl)phenyl)-1H-imidazole-2-carboxamide]
18 | < 200 | Cc1cc(-c2ncc3nc(C(F)(F)F)cc(C)c3n2)ccc1N(C)C(=O)c1ccnn1CCN1CCCC1 [Example 182, N-methyl-N-(2-methyl-4-(8-methyl-6-(trifluoromethyl)pyrido[3,2-d]pyrimidin-2-yl)phenyl)-1-(2-(pyrrolidin-1-yl)ethyl)-1H-pyrazole-5-carboxamide]
19 | < 200 | Cc1cc(-c2nc(N)c3nc(C(F)(F)F)cc(C)c3n2)ccc1N(C)C(=O)c1ccnn1C [Example 154, N-(4-(4-amino-8-methyl-6-(trifluoromethyl)pyrido[3,2-d]pyrimidin-2-yl)-2-methylphenyl)-N,1-dimethyl-1H-pyrazole-5-carboxamide]
20 | < 200 | Cc1cc(-c2ncc3nc(C(F)(F)F)cc(C)c3n2)c(F)cc1N(C)C(=O)c1ccnn1C [Example 181, N-(5-fluoro-2-methyl-4-(8-methyl-6-(trifluoromethyl)pyrido[3,2-d]pyrimidin-2-yl)phenyl)-N,1-dimethyl-1H-pyrazole-5-carboxamide]
21 | < 200 | Cc1cc(C(=O)N(C)c2ccc(-c3ncc4nc(C(F)(F)F)cc(C)c4n3)cc2C)ccn1 [Example 150, N,2-dimethyl-N-(2-methyl-4-(8-methyl-6-(trifluoromethyl)pyrido[3,2-d]pyrimidin-2-yl)phenyl)isonicotinamide]
22 | < 200 | Cc1cc(C(=O)N(C)c2ccc(-c3ncc4cc(C(F)(F)F)ccc4n3)cc2C)ccn1 [Example 120, N,2-dimethyl-N-(2-methyl-4-(6-(trifluoromethyl)quinazolin-2-yl)phenyl)isonicotinamide]
23 | < 200 | Cc1cc(C(=O)N(C)c2ccc(-c3ncc4cc(C(F)(F)F)ccc4n3)cc2C)c(C)cn1 [Example 126, N,2,5-trimethyl-N-(2-methyl-4-(6-(trifluoromethyl)quinazolin-2-yl)phenyl)isonicotinamide]
24 | 200 to 500 | Cc1cc(-c2ccc3cc(OC(F)(F)F)ccc3n2)ccc1NC(=O)c1ccnn1C [Example 011, 1-methyl-N-(2-methyl-4-(6-(trifluoromethoxy)quinolin-2-yl)phenyl)-1H-pyrazole-5-carboxamide]
25 | < 200 | Cc1cc(-c2ncc3nc(C(F)(F)F)cc(C)c3n2)ccc1NC(=O)c1ccnn1CC(N)=O [Example 170, 1-(2-amino-2-oxoethyl)-N-(2-methyl-4-(8-methyl-6-(trifluoromethyl)-pyrido[3,2-d]pyrimidin-2-yl)phenyl)-1H-pyrazole-5-carboxamide]
26 | < 200 | Cc1cc(-c2ncc3cc(C(F)(F)F)ccc3n2)ccc1NC(=O)c1ccnn1C [Example 112, 1-methyl-N-(2-methyl-4-(6-(trifluoromethyl)quinazolin-2-yl)phenyl)-1H-pyrazole-5-carboxamide]
27 | 200 to 500 | Cc1cc(-c2ccc3c(C(F)(F)F)cccc3n2)ccc1NC(=O)c1ccnn1C [Example 057, 1-methyl-N-(2-methyl-4-(5-(trifluoromethyl)quinolin-2-yl)phenyl)-1H-pyrazole-5-carboxamide]
28 | < 200 | Cc1cc(-c2ncc3cc(C(F)(F)F)ccc3n2)ccc1N1CCNC1=O [Example 141, 1-(2-methyl-4-(6-(trifluoromethyl)quinazolin-2-yl)phenyl)imidazolidin-2-one]
29 | 200 to 500 | Cc1cc(-c2ncc3cc(C(F)(F)F)ccc3n2)ccc1N(C)C(=O)c1cnc[nH]1 [Example 131, N-methyl-N-(2-methyl-4-(6-(trifluoromethyl)quinazolin-2-yl)phenyl)-1H-imidazole-5-carboxamide]
30 | < 200 | Cc1cc(-c2ccc3cc(C(F)(F)F)cc(C)c3n2)ccc1N(C)C(=O)c1ccnn1C [Example 202, N,1-dimethyl-N-(2-methyl-4-(8-methyl-6-(trifluoromethyl)quinolin-2-yl)phenyl)-1H-pyrazole-5-carboxamide]
31 | < 200 | COc1cc(C(=O)N(C)c2ccc(-c3ncc4cc(C(F)(F)F)ccc4n3)cc2C)ccn1 [Example 143, 2-Methoxy-N-methyl-N-(2-methyl-4-(6-(trifluoromethyl)quinazolin-2-yl)phenyl)isonicotinamide]
32 | < 200 | Cc1cc(-c2ncc3cc(C(F)(F)F)ccc3n2)ccc1N(C)C(=O)c1ncncc1C [Example 124, N,5-dimethyl-N-(2-methyl-4-(6-(trifluoromethyl)quinazolin-2-yl)phenyl)pyrimidine-4-carboxamide]
